Results: patent US9011853B2, “B7-H4 fusion proteins and methods of use thereof” (Amplimmune, Inc., priority 2009, dated 2015)

How the values were obtained:
[1] = test system: CD4^+CD62L^+ naïve T cells; assay: Mouse Th17 assay, IL-17A ELISA; format: cell-based; settings: 20, 10, 5, 2.5, and 1.25 μg/mL (FIGS. 57, 58)
Experimental: CD4^+CD62L^+ naïve T cells were isolated from BALB/c mice as in the above examples, and activated by anti-CD3 and anti-CD28 bound beads in the presence of Th17 differntiation cocktail (TGF-β1 (10 ng/mL), IL-6 (50 ng/mL), IL-23 (4 ng/mL), anti-IL-4 (10 μg/mL), anti-IFN-γ (5 μg/mL) and anti-IL-2 (5 μg/mL)). Murine B7-H4-Ig (10 μg/mL) or retinoic acid (RA) (10 μM) was added to the cultures on day 0, day 1, or day 2 of the 4 day culture. IL-17A levels were measured by ELISA at the end of the 4 day culture.
The Th17 assay is 4 days in duration. In order to determine when B7-H4-Ig is acting, the Th17 assay was performed with the addition of 10 μg/mL of murine B7-H4-Ig, 10 μg/mL of mouse IgG control, or […] retinoic acid on Day 0, Day 1, or Day 2.
Peripheral T cells were obtained from spleens and inguinal lymph nodes of 6-9 week old BALB/c mice by mechanical disruption through a cell strainer followed by red blood cell (RBC) lysis.
Naïve helper T cells (CD4^+CD62L^+) were obtained using the Miltenyi Biotec microbead system. CD4^+ cells are enriched by negative selection, and followed by a positive selection of CD62L^+. In some experiments CD25+ cells were also depleted.
After selection, cells are activated in vitro with anti-CD3/CD28 beads at a 1:1 cell:bead ratio in the presence of the TH17 differentiation cocktail (TGF-β1 (10 ng/ml), IL-6 (50 ng/ml), IL-23 (4 ng/ml), anti-IL-2 (5 μg/ml), anti-IL-4 (10 μg/ml), and anti-IFN-γ (5 μg/ml)). Murine B7-H4-Ig is added at a final concentration of 1.25-20 μg/ml. Retinoic acid (RA) is used as positive control and mouse IgG is used as a negative control.
After 4 days of culture, cultures are spun down and supernatants are harvested and stored at <−65° C. until analyzed for IL-17A levels by ELISA.

[2] = test system: CTLA4 KD/NOD mice; assay: Autoimmune diabetes in CTLA4 KD/NOD mice; format: in vivo, mouse; settings: 15 mg/kg i.p. 3 times per week for 4 weeks from age 2 weeks; mice 24 weeks old (22 weeks post treatment) (FIG. 49)
Experimental: Both female and male CTLA4 KD/NOD mice (Chen et al., PNAS, 103(44):16400-16405 (2006)) at age of 2 weeks were randomly assigned into experimental groups: vehicle (11 mice), and B7-H4-Ig (12 mice). Mice were treated with B7-H4-Ig 3 times per week for 4 weeks (15 mg/kg, per i.p. injection), and monitored 3 times per week for glucose content in the urine first with Diastix. […] Diabetes was determined when blood glucose reached ≧600 mg/dL.

[3] = test system: mRNAs associated with Th17 cells, Tregs, autoimmune disorders and inflammation; assay: Quantitative RT-PCR of mouse naïve T cells under Th17 differentiation cocktail; format: cell-based; settings: 1 μg/mL, vs isotype control (Table 13, FIG. 54)
Experimental: CD4^+CD62L^+ naïve T cells were isolated from BALB/c mice as in the above examples, and activated by anti-CD3 and anti-CD28 bound beads in the presence of Th17 differntiation cocktail (TGF-β1 (10 ng/mL), IL-6 (50 ng/mL), IL-23 (4 ng/mL), anti-IL-4 (10 μg/mL), anti-IFN-γ (5 μg/mL) and anti-IL-2 (5 μg/mL)). Cells were incubated with either B7-H4-Ig (two different lots—#22 and #23—at 1 μg/mL) or isotype control. RNA was isolated from the cells and used for quantitative RT-PCR to test the expression levels of a large number of mRNAs associated with Th17 cells, Tregs, autoimmune disorders and inflammation (SA Biosciences mouse Th17 panel).

[4] = test system: CD4^+CD25^− T cells; assay: Enteroantigen specific CD4+CD25- proliferation assay with cells from treated mice; format: in vivo, mouse; settings: Balb/c mice
Experimental: Extracts were prepared by removing the colon and cecum from mice and placing the content in PBS. This was sonicated 3 times for 30 seconds on ice, followed by centrifugation at 10,000 g for 10 min to remove insoluble material. The supernatant was collected, sterile filtered, and stored at −60° C. The protein concentration in the supernatants was typically 1 to 1.5 mg/mL as determined by the bicinchoninic acid (BCA) method.
Female wild-type Balb/c, 7 to 9 weeks of age, were injected with either 60 μg or 300 μg of B7-H4-Ig, intraperitoneally (IP), 3 times a week for 2 weeks. There were 5 mice in each group. B7-H4-Ig treated mice and also naïve control mice were euthanized for T cell isolation after 2 week treatment.
The CD4^+CD25^− T cells were obtained as follows: CD4^+ T cells were positively selected from spleen single-cell suspensions using a mouse anti-CD4 monoclonal antibody-coated DYNABEAD® and the DETACHABEAD® system (Dynal AS, Oslo, Norway) according to the manufacturer's instructions. Then the CD4^+ T cells ([…] assessed by flow cytometry) were separated into CD25^+ and CD25^− T cell populations by Miltenyi's magnetic bead technology (MACS®, Miltenyi Biotech, Belgisch Gladbach, Germany) using PE-labeled anti-CD25 monoclonal antibody, followed by the addition of anti-PE microbeads and depletion according to the manufacturer's instructions. […]

[5] = test system: TNFα, IL6, and chemokine (MCP-1); assay: Plasma proinflammatory molecules in CIA mice, BD Cytometric Bead Array; format: in vivo, mouse
Description: Plasma was collected on day 33 from mice treated as described in Example 3 and analyzed for proinflammatory molecules, e.g. TNFα, IL6, and chemokine (MCP-1) using the BD™ Cytometric Bead Array (CBA) Flex Sets.

Row | Substance | activity on mouse cells in the Th17 assay (IL-17A) [1] | diabetes development (blood glucose ≧600 mg/dL) [2] | expression of mRNA involved in Th17 cell differentiation (RORc, IL-17A, IL-17F, IL-21, IL-22) [3] | enteroantigen specific CD4+CD25− T effector cell response ([4]; 60 μg or 300 μg IP 3 times a week for 2 weeks (FIG. 52)) | Tregs from treated mice: blocking of enteroantigen priming and T cell proliferation ([4]; 60 μg or 300 μg IP 3 times a week for 2 weeks, vs Tregs from control mice (FIG. 51)) | plasma TNFα production ([5]; plasma day 33, vs vehicle control (FIG. 17A)) | plasma IL6 production ([5]; plasma day 33, vs vehicle control (FIG. 17B)) | plasma MCP-1 production ([5]; plasma day 33, vs vehicle control (FIG. 17C))
1 | Human B7-H4-Ig: human B7-H4 extracellular domain fused to hinge, CH2 and CH3 regions of human immunoglobulin Cγ1 chain; representative SEQ ID NOs:114-137 | active |  |  |  |  |  |  | 
2 | B7-H4-Ig: B7-H4 extracellular domain fused to Ig Fc; bare label is the human protein in Example 3, murine protein in Examples 1, 2, 5, 7-11 |  | did not develop diabetes | downregulates the expression of mRNA involved in Th17 cell differentiation | barely affected | more potent in blocking enteroantigen priming and T cell proliferation | significantly reduced | significantly reduced | significantly reduced
